Tests used:
[1] = molecular target: T1, Endothelin-converting enzyme 1 (Homo sapiens) (UniProt P42892); test: In vitro inhibitory activity was tested against Endothelin converting enzyme 1 at a concentration of 1 uM
T1 sequence (whole entry): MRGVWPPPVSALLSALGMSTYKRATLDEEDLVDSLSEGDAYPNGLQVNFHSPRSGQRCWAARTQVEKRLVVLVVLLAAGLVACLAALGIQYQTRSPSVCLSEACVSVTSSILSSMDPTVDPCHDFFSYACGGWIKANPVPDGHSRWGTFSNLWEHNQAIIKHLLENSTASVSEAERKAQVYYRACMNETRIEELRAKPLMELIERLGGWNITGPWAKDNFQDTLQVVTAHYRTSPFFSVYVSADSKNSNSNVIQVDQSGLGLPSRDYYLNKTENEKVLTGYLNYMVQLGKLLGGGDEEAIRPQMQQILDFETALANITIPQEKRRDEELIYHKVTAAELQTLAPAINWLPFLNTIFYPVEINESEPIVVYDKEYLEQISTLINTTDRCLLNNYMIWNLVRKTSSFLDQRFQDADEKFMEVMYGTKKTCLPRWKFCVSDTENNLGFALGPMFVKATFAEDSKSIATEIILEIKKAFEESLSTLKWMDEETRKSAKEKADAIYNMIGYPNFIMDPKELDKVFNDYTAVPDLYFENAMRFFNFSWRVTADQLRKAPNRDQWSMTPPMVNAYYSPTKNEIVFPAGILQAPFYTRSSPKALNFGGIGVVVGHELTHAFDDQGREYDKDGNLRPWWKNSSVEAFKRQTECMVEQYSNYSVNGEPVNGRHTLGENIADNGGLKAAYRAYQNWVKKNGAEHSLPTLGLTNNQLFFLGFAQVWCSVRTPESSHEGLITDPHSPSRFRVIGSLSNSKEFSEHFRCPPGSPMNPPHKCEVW

[2] = molecular target: T2, Endothelin-converting enzyme 1 (Homo sapiens, UniProt P42892); test: In vitro inhibitory activity was tested against Endothelin converting enzyme 1
T2 sequence (P42892 whole entry): T1 sequence (whole entry)

Structure (SMILES)	inhibition [1]	IC50 [2]
CC(C)[C@H](S)C(=O)NC1(C(=O)N[C@@H](Cc2ccccc2)C(=O)O)CCCC1	26%	–
COc1cccc(-c2ccc(CC(NC(=O)C3(NC(=O)[C@@H](S)C(C)C)CCCC3)C(=O)O)cc2)c1OC (stereo partly drawn)	–	350 nM
CC(C)[C@H](S)C(=O)NC1(C(=O)NC(Cc2ccc(-c3ccncc3)cc2)C(=O)O)CCCC1 (stereo partly drawn)	22%	–
CC(C)[C@H](S)C(=O)NC1(C(=O)N[C@H](Cc2ccc(-c3ccccc3)cc2)C(=O)O)CCCC1	18%	–
COc1cc(OC)cc(-c2ccc(CC(NC(=O)C3(NC(=O)[C@@H](S)C(C)C)CCCC3)C(=O)O)cc2)c1 (stereo partly drawn)	–	990 nM
CC(C)[C@H](S)C(=O)NC1(C(=O)N[C@@H](Cc2ccc(-c3ccc(C(F)(F)F)cc3)cc2)C(=O)O)CCCC1	54%	–
CC(C)[C@H](S)C(=O)NC1(C(=O)N[C@@H](Cc2cccc(-c3ccccc3)c2)C(=O)O)CCCC1	39%	–
CC(C)[C@H](S)C(=O)NC1(C(=O)NC(Cc2ccc(-c3cccnc3)cc2)C(=O)O)CCCC1 (stereo partly drawn)	–	150 nM
CC(C)[C@H](S)C(=O)NC1(C(=O)NC(Cc2ccc(-c3cncnc3)cc2)C(=O)O)CCCC1 (stereo partly drawn)	–	120 nM
COc1ccc(-c2ccc(C[C@H](NC(=O)C3(NC(=O)[C@@H](S)C(C)C)CCCC3)C(=O)O)cc2)cc1	49%	–
CC(C)[C@H](S)C(=O)NC1(C(=O)N[C@@H](Cc2ccc(-c3ccccc3)cc2)C(=O)O)CCCC1	77%	–
CC(C)[C@H](S)C(=O)NC1(C(=O)NC(Cc2ccc(-c3ccccn3)cc2)C(=O)O)CCCC1 (stereo partly drawn)	–	220 nM
CC(C)[C@H](S)C(=O)NC1(C(=O)N[C@@H](Cc2ccccc2-c2ccccc2)C(=O)O)CCCC1	0%	–

— ChEMBL document CHEMBL1134171, “Synthesis and biological activity of novel potent endothelin-converting enzyme-1 inhibitors” (Bioorg Med Chem Lett, 2001)
